These results are taken from article PMC7905067, “Design and Immunological Evaluation of a Hybrid Peptide as a Potent TLR2 Agonist by Structure-Based Virtual Screening” (Frontiers in Cell and Developmental Biology, 2021).

Read-outs that look alike come from different tables or passages of the source.

For one series, the system named is RAW264.7 cells. Put plainly: In vitro immunomodulatory activity: cytokine secretion by RAW264.7 cells (ELISA). The class given is cell-based, murine. To be noted: 10 μg/mL, 12 h, 37°C, ELISA; three independent experiments. The method, then:
RAW264.7 cells were seeded at a density of 1.0 × 10^6 cell/mL and treated with (10 μg/mL) or without peptides in each well of a 6-well plate for 12 h at 37°C in a humidified incubator with 5% CO2. After treatment, TNF-α, IL-6 and IL-1β secretion in the cell supernatants was assessed using ELISA kits according to the manufacturer’s instructions.

Another series has as its system TLR2, RAW264.7 cells. Put plainly: TLR2 blocking experiment (anti-mouse TLR2 C9A12, then LTPa). To be noted: LTPa 10 μg/mL, 24 h; with or without TLR2 mAb (C9A12) 1 h before; ELISA. In kind it is cell-based. The procedure: For TLR2 blocking experiments, RAW264.7 cells were cultured in 24-well plates overnight at 37°C. The mouse IgG2a isotype control antibody or anti-mouse TLR2 (C9A12; InvivoGen, San Diego, CA, United States) was added to the cell cultures 1 h before being treated with LTPa for 24 h at 37°C. Then, the levels of TNF-α, IL-6, and IL-1β in the culture supernatant were analyzed.

The subject of series [1] is immunoregulatory mediators, proinflammatory cytokines, and chemokines. Details: method as in 4 sources, ref Scott et al., 2002; Tjabringa et al., 2003; Bowdish et al., 2004 ||| ref Mookherjee et al., 2006; Molhoek et al., 2009 ||| ref Li et al., 2006; Tan et al., 2017 ||| ref Wei et al., 2018. As to conditions: cited from earlier work.
Series [2] relates to CTX-immunosuppressed murine model. Nature of the series: Body weight and immune organ indices in CTX-immunosuppressed mice. In kind it is in vivo, BALB/c mice. To be noted: CTX 80 mg/kg i.p. 3 days, peptide 10 mg/kg i.p. days 4-10, n = 12; for bodyweight: CTX group vs control. The method, then:
BALB/c mice (female, 6–8 weeks; Charles River, Beijing, China) used in this study were maintained in a specific-pathogen-free facility (55 ± 10% humidity and 22 ± 1°C) during the experiments. These experiments were conducted with approval from the Institutional Animal Care and Use Committee of China Agricultural University (certificate of the Beijing Laboratory Animal employee, ID: 18086).
(§1) After a 7-day adaptation period, the mice were randomly divided into five groups (n = 12 in each group): (1) control group: physiological saline was injected intraperitoneally once daily; (2) cyclophosphamide (CTX) group: CTX (80 mg/kg mouse weight; Sigma-Aldrich, St. Louis, MO, United States) was injected intraperitoneally once daily for the first 3 days. […] From days 4 to 10, peptide (10 mg/kg mouse weight) was injected intraperitoneally into mice once daily. Twenty-four hours after the last drug administration, all the mice were weighed and then euthanized, and their tissues and blood were collected for further study. The body weight index was calculated according to the formula:
Index(%)=finalbodyweight-initalbodyweight/initialbodyweight×100
The thymus and spleen indices were measured by the following formula:
Index(mg/g)=weightofthymusorspleen/bodyweight

The conditions of series [3]: cited from earlier work. From the text:
TP5 plays a vitally important role in the process of immune enhancement.

The next series concerns TLR2. To be noted: cited from earlier work. From the text: Therefore, LL-37 could prevent or attenuate immunosuppression.
For series [4] the following is noted: ref Anders et al., 2018; cited from earlier work.
Series [5] has as its system T lymphocyte subpopulations (CD4 +, CD8 +), mouse peripheral blood. Put plainly: Peripheral blood T lymphocyte subpopulations by flow cytometry. The class given is in vivo, BALB/c mice. As to conditions: CTX 80 mg/kg i.p. 3 days; peptide 10 mg/kg i.p. days 4-10; three biological replicates. The procedure: as §1, with “formula: […]” for “formula:”
Erythrocytes were aseptically obtained from the different groups of mouse peripheral blood and lysed with RBC lysis buffer. The remaining cells were washed with PBS and resuspended in PBS. The cells were combined with peridinin-chlorophyll-protein complex (PerCP)-conjugated anti-mouse CD3 +, allophycocyanin (APC)-conjugated anti-mouse CD4 +, and fluorescein isothiocyanate (FITC)-conjugated anti-mouse CD8 + (BD Pharmingen, United States) for 30 min at 4°C. The T lymphocyte subpopulations were analyzed by flow cytometry.

Series [6] has as its system MHC class II, mouse PBMCs. Put plainly: DC maturation: MHC-II expression by flow cytometry. As to conditions: CTX 80 mg/kg i.p. 3 days; peptide 10 mg/kg i.p. days 4-10; three biological replicates. In kind it is in vivo, BALB/c mice. The procedure: as §1, with “formula: […]” for “formula:”
Mouse peripheral blood mononuclear cells (PBMCs) were obtained from the different groups of mice through Ficoll density gradient centrifugation. The cells were resuspended in PBS with 5% FBS and incubated with 10% (v/v) normal goat serum for 15 min at 4°C. The cells were combined with FITC-conjugated antibodies specific for MHC class II (MHC-II; BD Pharmingen, United States). The surface expression of MHC-II was determined by flow cytometry.

The subject of series [7] is serum TNF-α, IL-6, and IL-1β. Put plainly: Serum cytokines by ELISA in CTX-treated mice. The class given is in vivo, BALB/c mice. As to conditions: CTX 80 mg/kg i.p. 3 days, peptide 10 mg/kg i.p. days 4-10, three biological replicates. The procedure:
as §1, with “formula: […]” for “formula:”
(§2) Serum was collected from blood and then assayed by ELISA kits according to the protocol supplied by the manufacturer (eBioscience, San Diego, United States) to determine the secretion of IgG, IgA, IgM, TNF-α, IL-6, and IL-1β.

In a further series the test system is serum IgA, IgG, and IgM. Nature of the series: Serum immunoglobulins by ELISA in CTX-treated mice. The class given is in vivo, BALB/c mice. To be noted: CTX 80 mg/kg i.p. 3 days, peptide 10 mg/kg i.p. days 4-10, three biological replicates. The procedure:
as §1, with “formula: […]” for “formula:”
as §2

The subject of series [8] is TLR2-NF-κB signaling pathway. Nature of the series: Western blot of TLR2-NF-κB signaling pathway. The class given is in vivo, BALB/c mice. To be noted: proteins from serum, three independent experiments. The method, then: as §1, with “formula: […]” for “formula:”
Whole proteins were extracted from the serum using a whole-protein extraction kit (Nanjing KeyGEN Biotech, Nanjing, China). The protein concentrations were determined with the BCA Assay (KeyGEN Biotech, Nanjing, China) according to the manufacturer’s instructions. Equivalent amounts of protein were separated by SDS-PAGE and blotted onto polyvinylidene fluoride membranes (Bio-Rad). […]

The subject of a further series is thymic atrophy. Set-up: method as in Goldstein et al., 1979; Singh et al., 1998. To be noted: ref Goldstein et al., 1979; Singh et al., 1998; cited from earlier work.

For the compound “IGKEFKRIVQRIKDFLRNLRKDVT [LTPc, hybrid peptide combining LL-37c and TP5]”, in the series on RAW264.7 cells, the IL-1β secretion entry is given as “remarkable increases”, the IL-6 secretion result is listed as “remarkable increases” and the TNF-α secretion entry is “remarkable increases”.

Turning to “TLR2 mAb: anti-mouse TLR2 (C9A12; InvivoGen) [reference compound]”, the “TNF-α, IL-6, and IL-1β production” value with TLR2, RAW264.7 cells is “significantly inhibited the TNF-α, IL-6, and IL-1β production induced by LTPa”.

Turning to “IGKEFKRIVQRIKDFLRNLVPRTE [LL-37 (13–36), characteristic fragment of LL-37]”, in series [1] (ref Mookherjee et al., 2006, Molhoek et al., 2009), the immunoregulatory activity result was “robust immunoregulatory activity”.

For “RKDVT FKRIVQRIKDFLR [TPLb, hybrid peptide combining TP5 and LL-37b]”, in the series on RAW264.7 cells, the IL-1β secretion result was “no significant increases”, the IL-6 secretion entry was “no significant increases” and the TNF-α secretion result is on record as “no significant increases”.

With “RKDVTIGKEFKRIVQRIKDFLRNL [TPLc, hybrid peptide combining TP5 and LL-37c]”, in the series on RAW264.7 cells, the IL-1β secretion entry is recorded as “no significant increases”, the IL-6 secretion entry was “no significant increases” and the TNF-α secretion entry is listed as “no significant increases”.

Take “LLGDFFRKSKEKIGKEFKRIVQRIKDFLRNLVPRTES [LL-37]”: in series [2], the bodyweight entry was “improved bodyweight rapidly”. In [3] (ref not separately given (sentence cites Anders et al., 2018)), the half-life entry was “long half-life”. The “innate immune response by binding to TLR2” value with TLR2 (ref Mansour et al., 2014, Zhang et al., 2016, Agier et al., 2018) is given as “robust innate immune response by binding to TLR2”. Further, the “production of immunoregulatory mediators, proinflammatory cytokines, and chemokines” value in series [1] (ref Scott et al., 2002, Tjabringa et al., 2003, Bowdish et al., 2004) is “stimulates the production of various immunoregulatory mediators, proinflammatory cytokines, and chemokines”. Further, in [4], the cytotoxicity entry is recorded as “hampered by its cytotoxicity”.

As to “IGKEFKRIV QRIKDFLRNL [LL-37 (13–31), characteristic fragment of LL-37]”, the immunoregulatory activity entry in series [1] (ref Wei et al., 2018) is “robust immunoregulatory activity”.

In the case of `O=P1(N(CCCl)CCCl)NCCCO1` (centres unmarked) [CTX, cyclophosphamide, reference compound], in series [2], the spleen index result was “significantly decreased”, the thymus index result is “significantly decreased” and the bodyweight entry is given as “significant decrease in the bodyweight”. The “proportions of CD4 + and CD8 + T lymphocytes” value in series [5] is “remarkably reduced the proportions of CD4 + and CD8 + T lymphocytes”. Further, in series [6], the “expression of MHC-II” value is reported as “significantly decreased”. In addition, in [7], the “serum IL-1β level” value was “significantly decreased”, the “serum IL-6 level” value is “significantly decreased” and the “serum TNF-α level” value is “significantly decreased”. In addition, in the series on serum IgA, IgG, and IgM, the “serum IgA level” value is reported as “significantly reduced”, the “serum IgG level” value is “significantly reduced” and the “serum IgM level” value is listed as “significantly reduced”. Besides, in series [8], the “expression levels of TLR2, MyD88, and TRAF6” value was “significantly decreased the expression levels of TLR2, MyD88, and TRAF6”; the “phosphorylation of IKK-β, IκB-α, and NF-κB” value is “significantly decreased”.

On to “FKRIVQRI KDFLR [LL-37 (17–29), characteristic fragment of LL-37]”, for which, in series [1] (ref Li et al., 2006, Tan et al., 2017), the immunoregulatory activity result is “robust immunoregulatory activity”.

“RKDVT [TP5, Thymopentin, Arg32–Tyr36 fragment derived from thymopoietin; parental peptide]”: the bodyweight entry in [2] is “improved bodyweight rapidly”. Further, the half-life result in series [3] is reported as “short half-life”. Besides, the TLR2 binding result with TLR2 (ref Li et al., 2013) was “exert its immunoregulatory activity by binding TLR2”. Also, in the series with thymic atrophy, the “restoration of thymic atrophy” value is reported as “able to restore the thymic atrophy induced by immunosuppressants”.

In the case of “RKDVTIGKEFKRIVQRIKDFLRNLVPRTE [TPLa, hybrid peptide combining TP5 and LL-37a]”, in the series on RAW264.7 cells, the IL-1β secretion result was “no significant increases”, the IL-6 secretion entry was “no significant increases” and the TNF-α secretion entry was “no significant increases”.

In the case of “FKRIVQRIKDFLRRKDVT [LTPb, hybrid peptide combining LL-37b and TP5]”, in the series with RAW264.7 cells, the IL-1β secretion entry was “remarkable increases”, the IL-6 secretion result is “remarkable increases” and the TNF-α secretion entry is on record as “remarkable increases”.
